Measured values as given in patent US12655174B2, “Adenosine A3 receptor agonists, preparation methods and uses thereof” (ZHEJIANG VIMGREEN PHARMACEUTICALS, LTD., priority 2020, dated 2026).

What was measured:
[1] = Pharmacokinetic test of compound in SD rat; type: in vivo; settings: SD rats, intragastric administration (IG), cassette dosing
Procedure: Example 28: Pharmacokinetic Test of Compound in SD Rat
The animal species used in this experiment were SD rats. There were 3 animals per group. The rats were dosed in cassette format, i.e., multiple (1-6) different compounds were dosed simultaneously to the same group of the SD rats. The vehicle used for the drug was 5% DMSO+5% Solutl+90% ([…] methylcellulose M450), and the administration route was intragastric administration (IG).

[2] = molecular target: T1, ADORA3 receptor (CHO cells stably expressing ADORA3 receptor) (Homo sapiens, UniProt P0DMS8); experiment: Effect of compound on intracellular cAMP level by adenosine A3 receptor agonism; type: cell-based; settings: forskolin-stimulated
T1 construct: expressed in transfected cells
T1 sequence (P0DMS8 1-318): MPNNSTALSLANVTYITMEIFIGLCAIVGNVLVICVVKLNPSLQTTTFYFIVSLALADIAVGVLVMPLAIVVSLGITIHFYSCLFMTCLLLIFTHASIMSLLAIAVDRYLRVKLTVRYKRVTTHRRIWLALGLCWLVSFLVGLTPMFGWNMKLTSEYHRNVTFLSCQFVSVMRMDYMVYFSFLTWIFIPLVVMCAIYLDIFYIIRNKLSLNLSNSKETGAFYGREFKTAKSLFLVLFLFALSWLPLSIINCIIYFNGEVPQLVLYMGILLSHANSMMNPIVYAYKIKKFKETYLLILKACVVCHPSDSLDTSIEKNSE
Summary of the method: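 Agonism read as change in forskolin-stimulated cAMP by TR-FRET competition (Eu-cAMP tracer, ULight anti-cAMP antibody). Compound tested as 10 three-fold dilutions on ADORA3-CHO cells in buffer containing rolipram, incubated at 37 °C. Hill fit of % activation against log concentration gives EC50.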

[3] = molecular target: T2, ADORA3 receptor (Homo sapiens, UniProt P0DMS8); experiment: Agonistic effect on adenosine A3 receptor by FLIPR assay (calcium flux assay); type: cell-based; settings: agonist mode
T2 sequence (P0DMS8 1-318): T1 sequence (P0DMS8 1-318)
Procedure: Example 27: Agonistic Effect of Compound on Adenosine A3 Receptor by FLIPR Assay (Calcium Flux Assay)
First Day: Cell Inoculation
• 1) With regard to ADORA3 receptor, cultured cells were used for inoculation: the culture medium was aspirated and the cells were washed twice with 10 mL of DPBS. 2 mL of 0.05% EDTA-trypsin was added and the cells were incubated at 37° C. for 1 minute. Then 10 mL of the culture medium was added to stop the digestion and the cell suspension was transferred to a 50-mL tapered tube. • 2) The 50-mL tapered tube containing the various cells was centrifuged at 300 g for 5 minutes. • 3) A supernatant was aspirated and no cells should be aspirated. • 4) The cell precipitate was resuspended in 6-8 mL of the culture medium, and then 0.5 mL of the cells were taken out for cell counting by using a Vi-cell XR cell viability analyzer. • 5) The cell suspension was diluted to 1×10^6 cells/mL (20 μL of 20,000 cells per well) in the culture medium and the cells were inoculated into a cell plate (384-well Poly-D-lysine protein-coated plate, Greiner-781946). • 6) The plate was placed in a 37° C./5% CO2 incubator for 16-20 hours. Second Day: • 1) Preparation of 2×Fluo-4 Direct™ uptaking dye • a. Preparation of probenecid solution • 1 mL of FLIPR assay buffer was added to 77 mg of probenecid (provided by Fluo-4 Direct™ calcium assay kit) to be prepared into 250 mM of a probenecid solution. The fresh probenecid solution was used daily. • b. 2×(8 μM) Fluo-4 Direct™ loading dye (per 10 mL)
A vial of the Fluo-4 Direct™ crystal was thawed and then 10 mL of the FLTPR analytical buffer was added to the vial. Then 0.2 mL of 250 mM of a probe solution was added to every 10 mL Fluo-4 Direct™ crystal to a final assay concentration of 2.5 mM. The solution was vortexed and stood for >5 min at a dark place. 2×Fluo-4 Direct™ uptaking dye was freshly prepared daily. • 2) Compound preparation • a. Preparation of compound plate: all reference and test compounds were serially diluted 4-fold in 10 points by using an Echo liquid processor and then 900 nL of the diluted compounds were transferred to a compound plate. • b. 30 μL FLIPR analytical buffer was added to the compound plate and the plate was centrifuged at 300 g for 1 minute. • 3) FLIPR analysis • a. With regard to ADORA3 receptor: firstly, the cell plate was taken out from a culture box. The culture medium was then aspirated and 20 μL of the FLIPR analytical buffer was added. The cell plate was placed in an incubator for 45 minutes and at a room temperature for 15 minutes. • b. To run an experimental solution on […], 10 μL of the FLIPR analytical buffer was transferred from the compound plate to a cell plate, and then the fluorescent signal was read. Then 10 μL of a compound solution was transferred from the compound plate to the cell plate and the fluorescence signal was read. “Max−min” was calculated from Reader 91 to an allowed maximum value. • c. With regard to agonist: activation %=(RLU−LC)/(HC−LC)*100, • wherein RLU=relative light unit, allowed maximum signal was 91; HC=average signal of high concentration agonist; and LC=mean signal of DMSO well. • d. Data were fitted to a model “log (agonist) versus response-variable slope” by using GraphPad Prism 5 to determine an EC50 value. • e. […] 2. Test Result

For `CNC(=O)[C@H]1O[C@@H](n2cnc3c(NCc4cc(C)ccn4)nc(-c4cncc(OC)c4)nc32)[C@H](O)[C@@H]1O` [compound 312], the “AUC_D” value [1] was 1820.66 kg·ng·h/mL/mg, the EC50 [2] was under 0.51 nM and the EC50 [3] was 4.05 nM.
